The values that follow come from patent publication US8916565B2, “Pyrrolopyrazine-spirocyclic piperidine amides as modulators of ion channels” (priority 2011, dated 2014).

Structures are written as SMILES.

The target in the experiment is human NaV subtype, like NaV 1.7 (Homo sapiens, UniProt Q15858). Description: E-VIPR optical membrane potential assay with electrical stimulation. In kind it is cell-based. The conditions noted are these: active against one or more sodium channels; Table 3 does not name the assay or NaV subtype; read-out: Binned Activity Data (IC50). An excerpt: Assays for Detecting and Measuring NaV Inhibition Properties of Compound E-VIPR Optical Membrane Potential Assay Method with Electrical Stimulation
Sequence of human NaV subtype, like NaV 1.7 (Q15858 whole entry): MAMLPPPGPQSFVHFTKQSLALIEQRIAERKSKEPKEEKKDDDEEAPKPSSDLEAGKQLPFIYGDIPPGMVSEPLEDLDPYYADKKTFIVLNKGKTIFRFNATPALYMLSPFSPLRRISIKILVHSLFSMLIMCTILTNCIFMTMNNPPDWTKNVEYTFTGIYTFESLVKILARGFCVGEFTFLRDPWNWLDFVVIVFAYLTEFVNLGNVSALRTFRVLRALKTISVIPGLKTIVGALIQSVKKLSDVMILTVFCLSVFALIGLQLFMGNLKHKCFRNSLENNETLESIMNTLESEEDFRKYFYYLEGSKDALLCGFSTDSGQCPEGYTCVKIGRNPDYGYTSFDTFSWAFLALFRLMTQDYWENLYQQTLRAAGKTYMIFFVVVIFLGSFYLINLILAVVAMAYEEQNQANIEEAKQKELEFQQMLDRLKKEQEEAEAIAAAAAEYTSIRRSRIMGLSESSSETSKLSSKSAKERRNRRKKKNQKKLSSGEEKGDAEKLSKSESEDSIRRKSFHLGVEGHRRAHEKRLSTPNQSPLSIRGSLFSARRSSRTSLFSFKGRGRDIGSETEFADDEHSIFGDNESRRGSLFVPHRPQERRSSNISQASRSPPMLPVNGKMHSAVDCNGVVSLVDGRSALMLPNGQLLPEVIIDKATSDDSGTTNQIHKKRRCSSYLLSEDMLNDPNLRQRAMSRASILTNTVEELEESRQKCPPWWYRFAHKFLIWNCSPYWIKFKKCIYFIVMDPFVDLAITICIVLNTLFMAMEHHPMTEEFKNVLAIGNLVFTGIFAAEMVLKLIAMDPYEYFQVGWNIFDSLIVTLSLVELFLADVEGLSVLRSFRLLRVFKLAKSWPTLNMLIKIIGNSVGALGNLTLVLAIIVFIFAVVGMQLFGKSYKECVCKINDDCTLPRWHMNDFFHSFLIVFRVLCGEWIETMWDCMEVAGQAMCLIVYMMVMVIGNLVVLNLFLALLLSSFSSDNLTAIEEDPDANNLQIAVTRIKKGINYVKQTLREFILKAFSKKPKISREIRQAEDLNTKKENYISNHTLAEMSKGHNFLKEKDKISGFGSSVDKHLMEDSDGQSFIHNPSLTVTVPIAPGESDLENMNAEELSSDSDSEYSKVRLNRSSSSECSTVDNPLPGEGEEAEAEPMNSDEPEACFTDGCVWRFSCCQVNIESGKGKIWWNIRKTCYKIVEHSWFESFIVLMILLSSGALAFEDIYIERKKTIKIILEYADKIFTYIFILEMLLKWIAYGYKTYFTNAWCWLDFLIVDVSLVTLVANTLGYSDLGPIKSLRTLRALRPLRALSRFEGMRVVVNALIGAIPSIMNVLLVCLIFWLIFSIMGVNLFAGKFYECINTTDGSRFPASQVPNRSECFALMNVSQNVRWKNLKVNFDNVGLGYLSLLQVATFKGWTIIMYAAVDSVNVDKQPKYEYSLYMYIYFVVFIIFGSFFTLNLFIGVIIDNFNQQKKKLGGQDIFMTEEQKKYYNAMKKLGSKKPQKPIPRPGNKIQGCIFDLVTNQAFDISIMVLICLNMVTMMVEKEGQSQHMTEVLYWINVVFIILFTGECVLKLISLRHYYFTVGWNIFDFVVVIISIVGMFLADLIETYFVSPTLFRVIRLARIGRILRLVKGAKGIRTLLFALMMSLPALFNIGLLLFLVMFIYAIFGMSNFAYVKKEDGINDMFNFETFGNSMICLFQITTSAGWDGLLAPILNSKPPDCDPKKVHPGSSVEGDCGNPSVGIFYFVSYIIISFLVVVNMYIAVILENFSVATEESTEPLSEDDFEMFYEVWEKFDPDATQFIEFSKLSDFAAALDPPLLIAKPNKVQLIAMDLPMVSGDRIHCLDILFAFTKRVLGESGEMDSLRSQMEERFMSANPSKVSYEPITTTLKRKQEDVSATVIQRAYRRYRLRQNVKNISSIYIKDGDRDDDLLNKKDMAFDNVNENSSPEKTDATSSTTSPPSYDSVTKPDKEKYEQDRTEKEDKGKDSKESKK
Sodium channels are voltage-dependent proteins that can be activated by inducing membrane voltage changes by applying electric fields. The electrical stimulation instrument and methods of use are described in Ion Channel Assay Methods PCT/US01/21652, herein incorporated by reference and are referred to as E-VIPR. The instrument comprises a microtiter plate handler, an optical system for exciting the coumarin dye while simultaneously recording the coumarin and oxonol emissions, a waveform generator, a current- or voltage-controlled amplifier, and a device for inserting electrodes in well. Under integrated computer control, this instrument passes user-programmed electrical stimulus protocols to cells within the wells of the microtiter plate.
24 hours before the assay on E-VIPR, HEK cells expressing human NaV subtype, like NaV 1.7, are seeded in 384-well poly-lysine coated plates at 15,000-20,000 cells per well. Other subtypes are performed in an analogous mode in a cell line expressing the NaV of interest. HEK cells are grown in media (exact composition is specific to each cell type and NaV subtype) supplemented with 10% FBS (Fetal Bovine Serum, qualified; GibcoBRL #16140-071) and 1% Pen-Strep (Penicillin-Streptomycin; GibcoBRL #15140-122). Cells are grown in vented cap flasks, in 90% humidity and 10% CO2, to 100% confluence. They are usually split by trypsinization 1:10 or 1:20, depending on scheduling needs, and grown for 2-3 days before the next split.
Bath 1 buffer. Glucose 10 mM (1.8 g/L), Magnesium Chloride (Anhydrous), 1 mM (0.095 g/L), Calcium Chloride, 2 mM (0.222 g/L), HEPES 10 mM (2.38 g/L), Potassium Chloride, 4.5 mM (0.335 g/L), Sodium Chloride 160 mM (9.35 g/L).
Hexyl Dye Solution: Bath 1 Buffer+0.5% β-cyclodextrin (make this prior to use, Sigma #C4767), 8 μM CC2-DMPE+2.5 μM DiSBAC6(3). To make the solution Add volume of 10% Pluronic F127 stock equal to volumes of CC2-DMPE+DiSBAC6(3). The order of preparation is first mix Pluronic and CC2-DMPE, then add DiSBAC6(3) while vortexing, then add Bath 1+β-Cyclodextrin.
1) Pre-spot compounds (in neat DMSO) into compound plates. Vehicle control (neat DMSO), the positive control (20 mM DMSO stock tetracaine, 125 μM final in assay) and test compounds are added to each well at 160× desired final concentration in neat DMSO. Final compound plate volume will be 80 μL (80-fold intermediate dilution from 1 μL DMSO spot; 160-fold final dilution after transfer to cell plate). Final DMSO concentration for all wells in assay is 0.625%.
2) Prepare Hexyl Dye Solution.
3) Prepare cell plates. On the day of the assay, medium is aspirated and cells are washed three times with 100 μL of Bath 1 Solution, maintaining 25 μL residual volume in each well.
4) Dispense 25 μL per well of Hexyl Dye Solution into cell plates. Incubate for 20-35 minutes at room temp or ambient conditions.
5) Dispense 80 μL per well of Bath 1 into compound plates. Acid Yellow-17 (1 mM) is added and Potassium Chloride can be altered from 4.5 to 20 mM depending on the NaV subtype and assay sensitivity.
6) Wash cell plates three times with 100 μL per well of Bath1, leaving 25 μL of residual volume. Then transfer 25 uL per well from Compound Plates to Cell Plates. Incubate for 20-35 minutes at room temp/ambient condition
7) Read Plate on E-VIPR. Use the current-controlled amplifier to deliver stimulation wave pulses for typically 9 seconds and a scan rate of 400 Hz. A pre-stimulus recording is performed for 0.5 seconds to obtain the un-stimulated intensities baseline. The stimulatory waveform is applied for 9 seconds followed by 0.5 seconds of post-stimulation recording to examine the relaxation to the resting state.
Turning to `CCC(C)(C)c1ccc(C(=O)N2CCC3(CC2)c2ccc(C(=O)C(F)(F)F)n2CCN3C)cc1` [Compound 54], the IC50 lay within 2000 to 5000 nM.

As to `Cc1cc(C(=O)N2CCC3(CC2)c2ccc(C(=O)C(F)(F)F)n2CCN3C)ccc1-c1ccccc1` [Compound 55], the half-inhibitory concentration (IC50) is not above 2000 nM.

Consider `COc1cc(C(=O)N2CCC3(CC2)c2ccc(C(C)=O)n2CCN3C)ccc1C(C)(C)C` [Compound 56], for which the half-maximal inhibitory concentration (IC50) was not above 2000 nM.

On to `CC(C)Oc1ccc(C(=O)N2CCC3(CC2)N[C@H](C)Cn2c(C(F)(F)F)ccc23)cc1F` [Compound 57], for which the IC50 is not above 2000 nM.

For `COc1ccc(C(=O)N2CCC3(CC2)c2ccc(C(=O)C(C)(C)C)n2CCN3C)cc1Cl` [Compound 58], the IC50 was not above 2000 nM.

On to `COc1cc(C(=O)N2CCC3(CC2)c2ccc(C(F)(F)F)n2CCN3CC(F)(F)F)ccc1OC(C)C` [Compound 59], for which the half-inhibitory concentration (IC50) was not above 2000 nM.

In the case of `COc1ccc(C(=O)N2CCC3(CC2)c2ccc(C(=O)C(F)(F)F)n2C[C@@H](C)N3C)cc1C(F)(F)F` [Compound 61], the IC50 was 2000 to 5000 nM.

For the compound `CCCCCc1ccc(C(=O)N2CCC3(CC2)c2ccc(C(=O)C(F)(F)F)n2CCN3C)cc1` [Compound 62], the IC50 was not above 2000 nM.

In the case of `Cc1cccc(C(=O)N2CCC3(CC2)c2ccc(C(F)(F)F)n2CCN3C)n1` [Compound 63], the half-maximal inhibitory concentration (IC50) was more than 5000 nM.

For the compound `CCOc1ccc(C(=O)N2CCC3(CC2)c2ccc(C(=O)C(F)(F)F)n2CCN3C)cc1C(F)(F)F` [Compound 64], the half-inhibitory concentration (IC50) is not above 2000 nM.

For the compound `CCCCOc1ccc(C(=O)N2CCC3(CC2)c2ccc(Cl)n2CCN3C)cc1OC` [Compound 65], the half-maximal inhibitory concentration (IC50) is not above 2000 nM.

For the compound `CN1CCn2c(C(=O)C3CC3)ccc2C12CCN(C(=O)c1ccc(C3CCCCC3)cc1)CC2` [Compound 66], the 50% inhibitory concentration (IC50) is not above 2000 nM.

As for `CCC(C)(C)c1ccc(C(=O)N2CCC3(CC2)c2ccc(C(C)=O)n2CCN3C)cc1` [Compound 67], the IC50 was more than 5000 nM.

Consider `CN1CCn2c(Cl)ccc2C12CCN(C(=O)c1ccc(OCc3ccccc3)cc1)CC2` [Compound 68], for which the IC50 was 2000 to 5000 nM.

Consider `CC(C)Oc1ccc(C(=O)N2CCC3(CC2)c2ccc(C(=O)C4CC4)n2CCN3C)cc1C(F)(F)F` [Compound 69], for which the IC50 is not above 2000 nM.

In the case of `Cc1cc(C(=O)N2CCC3(CC2)c2ccc(C(=O)C4CC4)n2CCN3C)ccc1OC(C)C` [Compound 70], the half-maximal inhibitory concentration (IC50) is not above 2000 nM.

For the compound `CN1CCn2c(C(=O)C(F)(F)F)ccc2C12CCN(C(=O)c1ccc(Cc3ccccc3)cc1)CC2` [Compound 71], the half-maximal inhibitory concentration (IC50) is not above 2000 nM.

Take `CN1CCn2c(C(=O)C(F)(F)F)ccc2C12CCN(C(=O)c1ccc(C(O)COCC(F)(F)F)cc1)CC2` (stereo not drawn) [Compound 72]: the IC50 was not above 2000 nM.

`CC(C)Cc1ccc(C(=O)N2CCC3(CC2)c2ccc(Cl)n2CCN3C)cc1` [Compound 73]: the IC50 lay within 2000 to 5000 nM.

As for `COc1ccc(C(=O)N2CCC3(CC2)c2ccc(C(=O)c4ccccc4)n2CCN3C)cc1Cl` [Compound 74], the IC50 was 2000 to 5000 nM.

With `CN1CCn2c(C(F)(F)F)cc(Cl)c2C12CCN(C(=O)c1ccc(COCC(F)(F)F)cc1)CC2` [Compound 75], the concentration for half-maximal inhibition (IC50) is not above 2000 nM.

As to `CC1(C)CNC2(CCN(C(=O)c3ccc(S(=O)(=O)NC4CC4)cc3)CC2)c2ccc(C(F)(F)F)n21` [Compound 76], the IC50 was more than 5000 nM.

On to `CC(C)Oc1ccc(C(=O)N2CCC3(CC2)NCC(C)(C)n2c(C(F)(F)F)ccc23)cc1Cl` [Compound 77], for which the IC50 is not above 2000 nM.

Take `CC(=O)c1ccc2n1CCN(C)C21CCN(C(=O)c2ccc(Oc3ccccc3)cc2)CC1` [Compound 78]: the 50% inhibitory concentration (IC50) is 2000 to 5000 nM.

For the compound `CC(C)CCOc1ccc(C(=O)N2CCC3(CC2)NC(C)(C)Cn2cc(F)c(F)c23)cc1` [Compound 79], the IC50 is more than 5000 nM.

Consider `CCc1ccc(C(=O)N2CCC3(CC2)c2ccc(C(F)(F)F)n2CCN3CCOC)cc1OC` [Compound 80], for which the IC50 was not above 2000 nM.

`COc1cc(C(=O)N2CCC3(CC2)c2ccc(Cl)n2CCN3C)ccc1OCC(C)C` [Compound 82]: the IC50 is not above 2000 nM.

On to `COc1cc(C(=O)N2CCC3(CC2)NCCn2c(C(F)(F)F)ccc23)ccc1C(C)(C)O` [Compound 83], for which the half-maximal inhibitory concentration (IC50) was not above 2000 nM.

Turning to `CN1CCn2c(C(F)(F)F)ccc2C12CCN(C(=O)c1ccc(C(C)(C)O)cc1)CC2` [Compound 84], the concentration for half-maximal inhibition (IC50) was not above 2000 nM.

With `COc1cc(C(=O)N2CCC3(CC2)c2ccc(C(=O)C(C)(C)C)n2CCN3C)ccc1OC(C)(C)C` [Compound 85], the 50% inhibitory concentration (IC50) was not above 2000 nM.

Turning to `CCOc1ccc(C(=O)N2CCC3(CC2)c2ccc(Cl)n2CCN3C)cc1OCC` [Compound 86], the half-inhibitory concentration (IC50) is more than 5000 nM.

Regarding `CCCc1ccc(C(=O)N2CCC3(CC2)c2ccc(C(=O)C(F)(F)F)n2CCN3C)cc1` [Compound 87], the IC50 was not above 2000 nM.

As for `COc1cc(C(=O)N2CC[C@@]3(c4ccc(C(F)(F)F)n4CCN3C)[C@H](F)C2)ccc1OC(C)C` [Compound 88], the 50% inhibitory concentration (IC50) lay in the range of 2000 to 5000 nM.

In the case of `COc1cc(C(=O)N2CCC3(CC2)c2ccc(C(=O)C(F)(F)F)n2CCN3C)ccc1OC(C)(C)C` [Compound 90], the half-inhibitory concentration (IC50) is not above 2000 nM.

Take `CC(C)Oc1ccc(C(=O)N2CCC3(CC2)c2ccc(C(=O)C(C)(C)C)n2CCN3C)c(F)c1` [Compound 91]: the 50% inhibitory concentration (IC50) was not above 2000 nM.

On to `CCCCCc1ccc(C(=O)N2CCC3(CC2)c2ccc(C(C)=O)n2CCN3C)cc1` [Compound 92], for which the IC50 was not above 2000 nM.

With `CN1CCn2c(C(=O)C(C)(C)C)ccc2C12CCN(C(=O)c1ccc(S(=O)(=O)C(F)(F)F)cc1)CC2` [Compound 93], the 50% inhibitory concentration (IC50) was not above 2000 nM.

As for `CCCN(CCC)S(=O)(=O)c1ccc(C(=O)N2CCC3(CC2)c2ccc(C(C)=O)n2CCN3C)cc1` [Compound 94], the IC50 was in the range of 2000 to 5000 nM.

Regarding `CN1CCn2c(C(F)(F)F)cc(Cl)c2C12CCN(C(=O)c1ccc(C(C)(C)O)c(F)c1)CC2` [Compound 95], the IC50 is not above 2000 nM.

As for `Cc1cc(C(=O)N2CCC3(CC2)c2ccc(C(F)(F)C(F)(F)F)n2CCN3C)ccc1OCCCO` [Compound 96], the IC50 was not above 2000 nM.

For the compound `CN1CCn2c(C(=O)C(C)(C)C)ccc2C12CCN(C(=O)c1ccc(O)c(C(F)(F)F)c1)CC2` [Compound 97], the half-maximal inhibitory concentration (IC50) is not above 2000 nM.

`Cc1cc(C(=O)N2CCC3(CC2)c2ccc(C(F)(F)F)n2CCN3C)ccc1C(C)(C)O` [Compound 98]: the concentration for half-maximal inhibition (IC50) is not above 2000 nM.

As to `COc1ccccc1C(=O)N1CCC2(CC1)c1ccc(C(F)(F)F)n1CCN2C` [Compound 99], the concentration for half-maximal inhibition (IC50) is 2000 to 5000 nM.

In the case of `CC(C)Oc1ccc(C(=O)N2CCC3(CC2)c2ccc(C(F)(F)F)n2CCN3C)cc1Cl` [Compound 100], the half-inhibitory concentration (IC50) is not above 2000 nM.

With `CN1CCn2c(C(=O)C(F)(F)F)ccc2C12CCN(C(=O)c1ccc(C3CCCCC3)cc1)CC2` [Compound 101], the IC50 is not above 2000 nM.

Consider `CN1CCn2c(C(F)(F)F)cc(Cl)c2C12CCN(C(=O)c1ccc(COCCC(F)(F)F)cc1)CC2` [Compound 102], for which the IC50 was not above 2000 nM.

In the case of `CC1(C)Cn2c(C(=O)C(F)(F)F)ccc2C2(CCN(C(=O)c3ccc(COCCC(F)(F)F)cc3)CC2)N1` [Compound 103], the IC50 was not above 2000 nM.

In the case of `CN1CCn2c(Cl)ccc2C12CCN(C(=O)c1ccc(-c3ccccc3)cc1)CC2` [Compound 104], the IC50 was more than 5000 nM.

On to `COc1cc(C(=O)N2CC[C@]3(c4ccc(C(F)(F)F)n4CCN3C)[C@H](F)C2)ccc1OC(C)C` [Compound 105], for which the IC50 was not above 2000 nM.

In the case of `Cc1cc(C(=O)N2CCC3(CC2)c2ccc(C(F)(F)F)n2CCN3C2CCC2)ccc1OC(C)C` [Compound 106], the half-inhibitory concentration (IC50) is not above 2000 nM.

Take `CCC(=O)c1ccc2n1CCN(C)C21CCN(C(=O)c2ccc(OC(C)C)c(Cl)c2)CC1` [Compound 107]: the IC50 was not above 2000 nM.

In general, IC50 refers to the concentration needed to halve the response being measured.
